In patent US5585353A, “Antibiotic peptides containing D-amino acids” (The Rockefeller University, priority 1994, dated 1996):
Read-outs that look alike come from different tables or passages of the source. Residues, ends and D or L forms follow the SMILES beside them. No end group written: not given here.

Columns and labels:
E. coli D21 = assay: inhibition zone assay, lethal concentration; type: cell-based; conditions: E. coli D21, thin agarose plates
Procedure: (§1) Thin agar or agarose plates (8.5 cm diameter) were prepared with 6 ml of rich medium containing 100 ug/ml of streptomycin and 2×10^5 viable cells of a test organism resistant to streptomycin. Wells of 3.5 mm diameter were punched in the plates and 3 ul of serially diluted samples were placed in the wells. The diameters of the zones of inhibition around the wells were measured after overnight incubation at 30° or 37° C. For each peptide the squares of the zone diameters were plotted against the logarithm of the concentration, and from the slopes and intercepts the lethal concentrations were calculated as described by Hultmark (1983) EMBO J. 2, 571-76 or Hultmark et al (1982) Eur. J. Biochem. 127 207-217 each of which being incorporated herein by reference.
(§2) Lethal Concentrations calculated from inhibition zones on thin agarose
(§3) plates seeded with the respective organisms. D21: E. coli; OT97: P.

P. aeruginosa OT97 = assay: inhibition zone assay, lethal concentration; type: cell-based; conditions: P. aeruginosa OT97, thin agarose plates
Procedure: as §1, §2, §3
(§4) aeruginosa; Bs11: B. subtilis; +ME: plates prepared with medium E; Staph: […]

B. subtilis Bs11 = assay: inhibition zone assay, lethal concentration; type: cell-based; conditions: for Lethal Concentrations Bs11 +ME: B. subtilis Bs11, plates prepared with medium E; for Lethal Concentrations Bs11: B. subtilis Bs11, thin agarose plates
Procedure: as §1, §2, §4

S. aureus Cowan 1 = assay: inhibition zone assay, lethal concentration; type: cell-based; conditions: S. aureus Cowan 1, thin agarose plates
Procedure: as §1, §2
aeruginosa; Bs11: B. subtilis; +ME: plates prepared with medium E; Staph:
(§5) S. aureus Cowan 1; Strep: S. pyogenes; SRC: Sheep red cells.; *all amino

S. pyogenes = assay: inhibition zone assay, lethal concentration; type: cell-based; conditions: thin agarose plates
Procedure: as §1, §2, §5

Sheep red cells = assay: inhibition zone assay, lethal concentration on sheep red cells; type: cell-based; conditions: thin agarose plates
Procedure: as §1, §2, §5

[1] = molecular target: immune inhibitor A (In A) (Bacillus thuringiensis subsp. alesti, UniProt P23382); type: in vitro ADME; conditions: 20 min at 36° C.; for Zone of inhibition: E. coli D21 plates
Procedure: (§6) FIGS. 1 and 2 graphically illustrate the resistance of the compounds of this invention to enzymatic hydrolysis by trypsin or immune inhibitor A (In A). The experiments were conducted as follows:
(§7) The original solutions of the enzymes contained 5 mg/ml in the case of trypsin and 0.1 mg/ml in the case of InA. These two samples were diluted as follows: A 10^-1, B 10^-2, C 10^-3 and D 10^-4. From each dilution, 2 ul were mixed with 2 ul of two peptides (D-CA and L-CA, both containing 1.3 ug/ul=162 pmol/ul). Control mixtures were made with 2 ul water and 2 ul peptide. All samples were incubated for 20 min at 36° C. Before and after the incubation, all samples were kept on ice. After the incubation 3 ul were placed in wells on plates seeded with E. coli D21 in order the determine the amount of antibiotic that was left. The diameter of the inhibition zone was recorded and compared with a previously prepared a standard curve. Results are as given in the table and illustrated in the figures.

[2] = test system: immune inhibitor A (In A); type: in vitro ADME; conditions: InA series, Control (no Enzyme), 20 min at 36° C.; for Zone of inhibition: peptide with water
Procedure: as §6, §7

trypsin = assay: proteolytic resistance to trypsin, residual antibiotic by inhibition zone on E. coli D21; type: in vitro ADME; conditions: 20 min at 36° C.
Procedure: as §6, §7

[3] = InA dilution A (10^-1 of 0.1 mg/ml)
[4] = Trypsin dilution A (10^-1 of 5 mg/ml), E. coli D21 plates
[5] = Trypsin dilution B (10^-2), E. coli D21 plates
[6] = Trypsin dilution C (10^-3), E. coli D21 plates
[7] = Trypsin dilution D (10^-4), E. coli D21 plates
[8] = Trypsin series, Control (no enzyme)
[9] = Trypsin series, Control (no enzyme), peptide with water

Chain of immune inhibitor A (In A) (Bacillus thuringiensis subsp. alesti, UniProt P23382) (P23382 41-687): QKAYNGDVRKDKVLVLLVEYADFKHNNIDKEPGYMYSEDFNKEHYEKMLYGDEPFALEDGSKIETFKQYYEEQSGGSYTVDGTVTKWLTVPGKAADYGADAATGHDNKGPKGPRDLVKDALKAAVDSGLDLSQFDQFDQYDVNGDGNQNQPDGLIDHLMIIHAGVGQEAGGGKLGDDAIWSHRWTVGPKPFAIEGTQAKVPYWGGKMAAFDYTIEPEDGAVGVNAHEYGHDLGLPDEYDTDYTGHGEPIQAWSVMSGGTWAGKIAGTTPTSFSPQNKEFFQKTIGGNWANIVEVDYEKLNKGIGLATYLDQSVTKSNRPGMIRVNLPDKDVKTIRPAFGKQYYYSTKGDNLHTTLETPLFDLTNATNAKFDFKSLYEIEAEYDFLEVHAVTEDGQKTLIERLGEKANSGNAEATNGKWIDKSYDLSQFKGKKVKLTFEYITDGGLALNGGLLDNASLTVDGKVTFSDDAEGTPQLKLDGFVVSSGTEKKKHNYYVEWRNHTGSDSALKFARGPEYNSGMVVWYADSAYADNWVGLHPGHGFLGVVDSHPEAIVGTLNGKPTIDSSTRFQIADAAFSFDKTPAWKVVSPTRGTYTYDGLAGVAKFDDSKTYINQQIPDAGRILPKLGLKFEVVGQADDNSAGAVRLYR

Molecule: CC[C@@H](C)[C@@H](NC(=O)CNC(=O)[C@@H](CC(=O)O)NC(=O)[C@@H](CCCNC(=N)N)NC(=O)[C@H](NC(=O)[C@@H](CC(N)=O)NC(=O)[C@@H](CCC(N)=O)NC(=O)CNC(=O)[C@H](NC(=O)[C@@H](CCCCN)NC(=O)[C@@H](CCC(=O)O)NC(=O)[C@H](NC(=O)[C@@H](CCCCN)NC(=O)[C@@H](CCCCN)NC(=O)[C@@H](Cc1ccccc1)NC(=O)[C@@H](CC(C)C)NC(=O)[C@@H](CCCCN)NC(=O)[C@@H](Cc1c[nH]c2ccccc12)NC(=O)[C@H](N)CCCCN)[C@H](C)CC)C(C)C)[C@H](C)CC)C(=O)N[C@@H](C(=O)N[C@H](CCCCN)C(=O)N[C@H](C)C(=O)NCC(=O)N1CCC[C@@H]1C(=O)N[C@H](C)C(=O)N[C@@H](C(=O)N[C@H](C)C(=O)N[C@@H](C(=O)N[C@@H](C(=O)NCC(=O)N[C@H](CCC(N)=O)C(=O)N[C@H](C)C(=O)N[C@@H](C(=O)N[C@H](CCC(N)=O)C(=O)N[C@@H](C(=O)N[C@H](C)C(=O)N[C@H](CCCCN)C(N)=O)[C@H](C)CC)[C@H](C)O)C(C)C)C(C)C)C(C)C)[C@H](C)CC [Compound 2] (HELM PEPTIDE1{[dK].[dW].[dK].[dL].[dF].[dK].[dK].[dI].[dE].[dK].[dV].G.[dQ].[dN].[dI].[dR].[dD].G.[dI].[dI].[dK].[dA].G.[dP].[dA].[dV].[dA].[dV].[dV].G.[dQ].[dA].[dT].[dQ].[dI].[dA].[dK].[am]}$$$$V2.0)
- Lethal Concentrations D21 (E. coli D21): 0.3 µM
- Lethal Concentrations OT97 (P. aeruginosa OT97): 0.8 µM
- Lethal Concentrations Bs11 +ME (B. subtilis Bs11): 30 µM
- Lethal Concentrations Bs11 (B. subtilis Bs11): 3 µM
- Lethal Concentrations Staph (S. aureus Cowan 1): > 300 µM
- Lethal Concentrations Strep (S. pyogenes): 2 µM
- Lethal Concentrations SRC (Sheep red cells): > 300 µM
- Amount of peptide left ([1]; InA dilution A (10^-1)): 512 pmol
- Conc. ([1]; InA dilution A (10^-1)): 171 µM
- Percent remaining ([1]; InA dilution A (10^-1)): 106%
- Zone of inhibition [1, 3]: 1.54 cm
- Amount of peptide left ([1]; InA dilution B (10^-2)): 468 pmol
- Conc. ([1]; InA dilution B (10^-2)): 156 µM
- Percent remaining ([1]; InA dilution B (10^-2)): 96%
- Zone of inhibition ([1]; InA dilution B (10^-2)): 1.52 cm
- Amount of peptide left ([1]; InA dilution C (10^-3)): 468 pmol
- Conc. ([1]; InA dilution C (10^-3)): 156 µM
- Percent remaining ([1]; InA dilution C (10^-3)): 96%
- Zone of inhibition ([1]; InA dilution C (10^-3)): 1.52 cm
- Amount of peptide left ([1]; InA dilution D (10^-4)): 448 pmol
- Conc. ([1]; InA dilution D (10^-4)): 149 µM
- Percent remaining ([1]; InA dilution D (10^-4)): 92%
- Zone of inhibition ([1]; InA dilution D (10^-4)): 1.51 cm
- Amount of peptide left [2]: 535 pmol
- Conc. [2]: 178 µM
- Percent remaining [2]: 110%
- Zone of inhibition [2]: 1.55 cm
- Amount of peptide left (trypsin; Trypsin dilution A (10^-1)): 535 pmol
- Conc. (trypsin; Trypsin dilution A (10^-1)): 178 µM
- Percent remaining (trypsin; Trypsin dilution A (10^-1)): 110%
- Zone of inhibition (trypsin; [4]): 1.55 cm
- Amount of peptide left (trypsin; Trypsin dilution B (10^-2)): 489 pmol
- Conc. (trypsin; Trypsin dilution B (10^-2)): 163 µM
- Percent remaining (trypsin; Trypsin dilution B (10^-2)): 101%
- Zone of inhibition (trypsin; [5]): 1.53 cm
- Amount of peptide left (trypsin; Trypsin dilution C (10^-3)): 512 pmol
- Conc. (trypsin; Trypsin dilution C (10^-3)): 171 µM
- Percent remaining (trypsin; Trypsin dilution C (10^-3)): 106%
- Zone of inhibition (trypsin; [6]): 1.54 cm
- Amount of peptide left (trypsin; Trypsin dilution D (10^-4)): 489 pmol
- Conc. (trypsin; Trypsin dilution D (10^-4)): 163 µM
- Percent remaining (trypsin; Trypsin dilution D (10^-4)): 101%
- Zone of inhibition (trypsin; [7]): 1.53 cm
- Amount of peptide left (trypsin; [8]): 512 pmol
- Conc. (trypsin; [8]): 171 µM
- Percent remaining (trypsin; [8]): 106%
- Zone of inhibition (trypsin; [9]): 1.54 cm

Molecule: KWKLFKKIEKVGQNIRDGIIKAGPAVAVVGQATQIAK-NH2 [Compound 1, Cecropin A]
- Lethal Concentrations D21 (E. coli D21): 0.2 µM
- Lethal Concentrations OT97 (P. aeruginosa OT97): 1 µM
- Lethal Concentrations Bs11 +ME (B. subtilis Bs11): 60 µM
- Lethal Concentrations Bs11 (B. subtilis Bs11): 3 µM
- Lethal Concentrations Staph (S. aureus Cowan 1): > 300 µM
- Lethal Concentrations Strep (S. pyogenes): 5 µM
- Lethal Concentrations SRC (Sheep red cells): > 200 µM
- Amount of peptide left ([1]; InA dilution A (10^-1)): 0 pmol
- Conc. ([1]; InA dilution A (10^-1)): 0 µM
- Percent remaining ([1]; InA dilution A (10^-1)): 0%
- Zone of inhibition [1, 3]: None
- Amount of peptide left ([1]; InA dilution B (10^-2)): 316 pmol
- Conc. ([1]; InA dilution B (10^-2)): 105 µM
- Percent remaining ([1]; InA dilution B (10^-2)): 65%
- Zone of inhibition ([1]; InA dilution B (10^-2)): 1.42 cm
- Amount of peptide left ([1]; InA dilution C (10^-3)): 442 pmol
- Conc. ([1]; InA dilution C (10^-3)): 147 µM
- Percent remaining ([1]; InA dilution C (10^-3)): 91%
- Zone of inhibition ([1]; InA dilution C (10^-3)): 1.48 cm
- Amount of peptide left ([1]; InA dilution D (10^-4)): 469 pmol
- Conc. ([1]; InA dilution D (10^-4)): 156 µM
- Percent remaining ([1]; InA dilution D (10^-4)): 96%
- Zone of inhibition ([1]; InA dilution D (10^-4)): 1.49 cm
- Amount of peptide left [2]: 469 pmol
- Conc. [2]: 156 µM
- Percent remaining [2]: 96%
- Zone of inhibition [2]: 1.49 cm
- Amount of peptide left (trypsin; Trypsin dilution A (10^-1)): 0 pmol
- Conc. (trypsin; Trypsin dilution A (10^-1)): 0 µM
- Percent remaining (trypsin; Trypsin dilution A (10^-1)): 0%
- Zone of inhibition (trypsin; [4]): None
- Amount of peptide left (trypsin; Trypsin dilution B (10^-2)): 0 pmol
- Conc. (trypsin; Trypsin dilution B (10^-2)): 0 µM
- Percent remaining (trypsin; Trypsin dilution B (10^-2)): 0%
- Zone of inhibition (trypsin; [5]): None
- Amount of peptide left (trypsin; Trypsin dilution C (10^-3)): 34 pmol
- Conc. (trypsin; Trypsin dilution C (10^-3)): 11 µM
- Percent remaining (trypsin; Trypsin dilution C (10^-3)): 6.8%
- Zone of inhibition (trypsin; [6]): 0.93 cm
- Amount of peptide left (trypsin; Trypsin dilution D (10^-4)): 131 pmol
- Conc. (trypsin; Trypsin dilution D (10^-4)): 44 µM
- Percent remaining (trypsin; Trypsin dilution D (10^-4)): 27%
- Zone of inhibition (trypsin; [7]): 1.25 cm
- Amount of peptide left (trypsin; [8]): 373 pmol
- Conc. (trypsin; [8]): 124 µM
- Percent remaining (trypsin; [8]): 77%
- Zone of inhibition (trypsin; [9]): 1.45 cm
